# Measured values: the supplement of paper PMC13380429
# How the values were obtained:
# Conditions in all cases: 72 h
# HepG2 [1] = assay: cell viability relative to DMSO; higher = less toxic
# Calu-3 [2] = assay: as above
# Vero E6 [3] = assay: as above
# U2OS [4] = assay: as above
# Caco-2 [5] = assay: as above
# HepG2 [6] = assay: relative viability EC50 (midpoint between 100% and the lowest measured viability); higher = less toxic
# Calu-3 [7] = assay: as above
# Vero E6 [8] = assay: as above
# U2OS [9] = assay: as above
# Caco-2 [10] = assay: as above
# HepG2 [11] = assay: drug sensitivity score (DSS) for viability; higher = more toxic; extreme values may be limits of the assay
# Calu-3 [12] = assay: as above
# Vero E6 [13] = assay: as above
# U2OS [14] = assay: as above
# Caco-2 [15] = assay: as above
Structure (SMILES),cell viability (HepG2 [1]; 1 nM) [%],cell viability (HepG2 [1]; 10 nM) [%],cell viability (HepG2 [1]; 100 nM) [%],cell viability (HepG2 [1]; 1000 nM) [%],cell viability (HepG2 [1]; 10000 nM) [%],cell viability (Calu-3 [2]; 1 nM) [%],cell viability (Calu-3 [2]; 10 nM) [%],cell viability (Calu-3 [2]; 100 nM) [%],cell viability (Calu-3 [2]; 1000 nM) [%],cell viability (Calu-3 [2]; 10000 nM) [%],cell viability (Vero E6 [3]; 1 nM) [%],cell viability (Vero E6 [3]; 10 nM) [%],cell viability (Vero E6 [3]; 100 nM) [%],cell viability (Vero E6 [3]; 1000 nM) [%],cell viability (Vero E6 [3]; 10000 nM) [%],cell viability (U2OS [4]; 1 nM) [%],cell viability (U2OS [4]; 10 nM) [%],cell viability (U2OS [4]; 100 nM) [%],cell viability (U2OS [4]; 1000 nM) [%],cell viability (U2OS [4]; 10000 nM) [%],cell viability (Caco-2 [5]; 1 nM) [%],cell viability (Caco-2 [5]; 10 nM) [%],cell viability (Caco-2 [5]; 100 nM) [%],cell viability (Caco-2 [5]; 1000 nM) [%],cell viability (Caco-2 [5]; 10000 nM) [%],relative viability EC50 (HepG2 [6]) [µM],relative viability EC50 (Calu-3 [7]) [µM],relative viability EC50 (Vero E6 [8]) [µM],relative viability EC50 (U2OS [9]) [µM],relative viability EC50 (Caco-2 [10]) [µM],drug sensitivity score (HepG2 [11]),drug sensitivity score (Calu-3 [12]),drug sensitivity score (Vero E6 [13]),drug sensitivity score (U2OS [14]),drug sensitivity score (Caco-2 [15])
Cc1cccc(Cc2c[nH]cn2)c1C [detomidine],99.4,101,104,113,113,99.7,93,102,103,102,91,101,90.5,102,106,101,98.2,103,96.5,101,94.2,94,97.5,86.7,96.1,> 10,> 10,> 10,> 10,> 10,0,0,0,0,0
N#CC(c1ccc(Cl)cc1)c1c(Cl)cc(-n2ncc(=O)[nH]c2=O)cc1Cl (stereo not given) [diclazuril],101,102,121,110,91,98,84.7,94.2,92.9,107,99.4,100,92.2,95.8,109,98.6,98.5,95.7,94.8,100,100,93.7,107,86.3,110,> 10,> 10,> 10,> 10,> 10,0,0,0,0,0
C1CCC(NC2CCCCC2)CC1 [dicyclohexylamine],99,104,97.5,111,104,96.6,99,87.8,97.8,98,99.1,96.3,97.3,100,97.5,99.2,99.5,99.4,104,97.7,98.7,104,94.6,106,94.1,> 10,> 10,> 10,> 10,> 10,0,0,0,0,0
COc1ccc(-c2cc(=O)c3c(O)cc(O)cc3o2)cc1O [diosmetin],97.7,109,94.6,120,86.7,93.2,104,91.5,93.7,78.3,95.2,96.8,91,101,113,94.2,93.1,101,96.2,90.2,95.9,91.6,101,96.6,86.3,> 10,> 10,> 10,> 10,> 10,0,1,0,0,0.4
CCCCCCCCCCCC1=C(O)C(=O)C=C(O)C1=O [embelin],95.9,94.4,98.9,98.6,102,106,98.6,110,96.2,104,92.1,94.3,97.8,105,97,107,95.1,101,94.7,95.3,98.2,97.2,98.5,104,92.2,> 10,> 10,> 10,> 10,> 10,0,0,0,0,0
CC1(C)[C@@H](O)CC[C@]2(C)[C@H]3C(=O)C=C4[C@@H]5C[C@@](C)(C(=O)O)CC[C@]5(C)CC[C@@]4(C)[C@]3(C)CC[C@@H]12 [enoxolone],75.2,90.9,87,95.9,96,110,106,98.6,105,99.1,93.1,99.8,95.2,103,92.5,99.4,93.2,95.4,99.6,98.6,96.6,101,97,87.2,96.3,> 10,> 10,> 10,> 10,> 10,0,0,0,0,0
CCOC(=O)c1cnc2c(cnn2CC)c1NN=C(C)C [etazolate],94.4,93,96.6,106,88.4,102,101,96.2,94.3,90.9,96.9,93.5,96.5,98.9,85.1,101,94.7,97.1,96.6,97.7,100,96.7,102,99.6,92.9,> 10,> 10,> 10,> 10,> 10,0,0,0.3,0,0
